Marks after values point to notes of the source that are not given here. Positions of bridges follow the written chain, without caps; N, C: chain ends. Residues, ends and D or L forms follow the SMILES beside them. No end group written: not given here.
Legend:
recombinant human uPAR = target: T1, recombinant human uPAR (Homo sapiens, UniProt Q03405); assay: Microtitre plate solid phase ATF-ligand binding test; conditions: 0.6 ng ATF together with 15 μg synthetic peptide per ml; FIG. 2
T1 construct: made in house; host or cells: CHO cells
T1 sequence (Q03405 23-299 limits assumed): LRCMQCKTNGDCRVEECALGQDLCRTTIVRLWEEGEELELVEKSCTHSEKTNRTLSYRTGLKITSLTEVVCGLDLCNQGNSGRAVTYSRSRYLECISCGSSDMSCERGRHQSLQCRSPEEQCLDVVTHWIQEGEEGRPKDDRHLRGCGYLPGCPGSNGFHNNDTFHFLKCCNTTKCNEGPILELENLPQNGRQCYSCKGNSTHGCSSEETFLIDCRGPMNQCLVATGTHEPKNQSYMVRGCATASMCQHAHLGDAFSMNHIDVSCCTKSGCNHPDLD
Protocol: In addition to the flow cytometric analyses, a solid phase ATF-ligand binding test was carried out in order to examine the interactions of synthetic peptides with the uPAR. For this microtitre plates were coated with recombinant human uPAR from CHO cells (Wilhelm et al., FEBS Lett. 337 (1994), 131-134; Magdolen et al., Electrophoresis 16 (1995), 813-816) and the remaining protein-binding sites were saturated with 2% BSA (weight/vol). After incubation with the samples (0.6 ng ATF together with 15 μg synthetic peptide per ml) and several wash steps, the amount of ATF which had bound to the uPAR immobilized on the microtitre plate was determined using a biotinylated monoclonal mouse antibody against the kringle domain of ATF (No. 377, American Diagnostics, Greenwich, Conn., USA) and subsequent addition of avidin-peroxidase conjugate and 3,3′,5,5′-tetramethylbenzidine/[…] as a substrate for the peroxidase. The presence of synthetic peptides which compete with the ATF binding to uPAR reduces the conversion of the chromogenic substrate.
A series of peptides with variable sequence regions from the receptor binding region of uPA were synthesized and were increasingly shortened at the amino terminus starting with uPA10-32. The microtitre plate solid phase binding test described in 1.4 was used to determine the inhibitory capacity of these peptides.

[1] = target: T2, cell surface-associated uPAR (Homo sapiens, UniProt Q03405); assay: Flow cytometry: inhibition of binding of FITC-conjugated pro-uPA to cell surface-associated uPAR on PMA-stimulated U937 cells
T2 construct: source of cellular native uPAR; endogenous in cells; host or cells: U937 cells stimulated with PMA
T2 sequence (Q03405 23-305): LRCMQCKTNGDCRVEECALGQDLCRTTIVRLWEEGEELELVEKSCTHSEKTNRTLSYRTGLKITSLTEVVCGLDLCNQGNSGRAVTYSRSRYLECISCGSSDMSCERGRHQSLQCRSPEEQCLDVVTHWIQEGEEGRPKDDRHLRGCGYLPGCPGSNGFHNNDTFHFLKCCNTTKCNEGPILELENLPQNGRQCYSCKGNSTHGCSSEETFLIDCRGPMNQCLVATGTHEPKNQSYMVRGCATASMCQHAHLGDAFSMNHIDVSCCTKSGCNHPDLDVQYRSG
Protocol: The ability of the synthetic peptides to inhibit the uPA/uPAR interaction was determined by means of flow cytometry on a FACScan flow cytometer (Becton-Dickinson, Heidelberg, Germany) using the human promyeloid cell line U937 as a source of cellular native uPAR (Chuchulowski et al., Fibrinolysis 6, Suppl. 4 (1992), 95-102; Magdolen et al., (1996), supra). The U937 cells were stimulated with […] phorbol-12-myristate-13-acetate (PMA) for 48 h. After stimulation with PMA the U937 cells expressed considerable amounts of cell surface-associated uPAR.
The stimulated cells were treated for 1 min at room temperature with 50 mM glycine HCl, 0.1 NaCl, pH 3.6 in order to dissociate endogenous receptor-bound uPA. Subsequently the acidic buffer was neutralized with 0.5 M HEPES-100 mM NaCl, pH 7.5. […] Before the analysis, propidium iodide, a fluorescent dye which specifically binds double-stranded DNA, was added to each sample in order to determine the viability of the analysed U937 cells. […]
For this the purified peptides were analysed by mass spectroscopy, quantified by amino acid analysis and then tested by flow cytometry according to the method described in 1.3 for their ability to inhibit the binding of fluorescent-labelled pro-uPA to the uPA receptor on U937 cells. […]

[2] = tested on: human breast cancer cells MDA-MB-231; assay: Primary tumour growth of MDA-MB-231 cells injected into naked mice; type: in vivo, Balbc/3 naked mice; conditions: 10 mg/kg intraperitoneally twice weekly
Protocol: 6×10^6 human breast cancer cells MDA-MB-231 (Price et al., Cancer Res. 50 (1990), 717-721) in a total volume of 300 μl were injected into the right side of 4-6 week old Balbc/3 naked mice. Before injection the cancer cells were mixed with 200 μg of the cyclic uPA peptides cyclo^19,31uPA19-31 (SEQ ID NO: 3) and Cyclo^21,29[Cys21,29]uPA21-30 (SEQ ID NO: 4) in PBS, pH 7.4. Subsequently the mice were treated twice weekly intraperitoneally with the respective peptide at a dose of 10 mg/kg body weight (injection volume 300 μl). The volume of the primary tumours which occurred in the mice in cm^3 was determined after 1, 2, 3 and 5 weeks by measuring the two largest diameters. The control mice were administered PBS pH 7.4. Each group was composed of 5 mice. The results for the peptide cyclo^19,31uPA19-31 (SEQ ID NO: 3) are shown in Tab. 2.

[3] = Stability of binding activity after long storage in aqueous solution or repeated freeze/thaw cycles; type: physicochemical

Compound	inhibition of the binding of ATF to uPAR / uPAR binding capacity (recombinant human uPAR)	further results
CC[C@H](C)[C@H](NC(=O)[C@H](CC(N)=O)NC(=O)[C@H](CO)NC(=O)[C@H](Cc1ccccc1)NC(=O)[C@H](Cc1ccc(O)cc1)NC(=O)[C@H](CCCCN)NC(=O)[C@H](CC(N)=O)NC(=O)[C@H](CO)NC(=O)[C@@H](NC(=O)[C@H](CS)NC(=O)[C@@H](NC(=O)CNC(=O)CN)[C@@H](C)O)C(C)C)C(=O)N[C@@H](Cc1c[nH]cn1)C(=O)N[C@@H](Cc1c[nH]c2ccccc12)C(=O)N[C@@H](CS)C(=O)N[C@@H](CC(N)=O)C(=O)O [uPA16-32] (H-GGTCVSNKYFSNIHWCN-OH; N-terminus assumed)	effectively inhibit	fold higher affinity to uPAR compared to uPA12-32 [C19A] and clone 20 peptide [1]: 4- to 5 fold; molar excess resulting in a 50% inhibition of the binding of uPA ([1]; FITC-conjugated pro-uPA): approximately 3,000 molar excess
CC[C@H](C)[C@H](NC(=O)[C@H](CC(N)=O)NC(=O)[C@H](CO)NC(=O)[C@H](Cc1ccccc1)NC(=O)[C@H](Cc1ccc(O)cc1)NC(=O)[C@H](CCCCN)NC(=O)[C@H](CC(N)=O)NC(=O)[C@H](CO)NC(=O)[C@@H](NC(=O)[C@@H](N)CS)C(C)C)C(=O)N[C@@H](Cc1c[nH]cn1)C(=O)N[C@@H](Cc1c[nH]c2ccccc12)C(=O)N[C@@H](CS)C(=O)O [uPA19-31] (H-CVSNKYFSNIHWC-OH; N-terminus and C-terminus assumed)	higher affinity than the longer peptide uPA16-32	–
cyclo^19-31uPA19-31: cyclic peptide uPA19-31 with an intramolecular disulfide bond between the cysteine residues at positions 19 and 31 (CVSNKYFSNIHWC; disulfide 1-13)	still able to inhibit the binding of uPA to the uPA receptor	volume of the primary tumours ([2]; week 1): 0 cm^3; volume of the primary tumours ([2]; week 2): 0.086 ± 0.047 cm^3; volume of the primary tumours ([2]; week 3): 0.303 ± 0.129 cm^3; volume of the primary tumours ([2]; week 5, p = 0.02): 0.62 ± 0.21* cm^3; stability of binding activity compared with linear peptide uPA19-31 [3]: significantly more stable
uPA10-32: linear peptide from the receptor binding region of uPA, amino acids 10-32 (NCDCLNGGTCVSNKYFSNIHWCN)	effectively inhibit	–
uPA12-31: linear peptide from the receptor binding region of uPA, amino acids 12-31 as printed (DCLNGGTCVSNKYFSNIHWC)	effectively inhibit	–
uPA14-32: linear peptide from the receptor binding region of uPA, amino acids 14-32 (LNGGTCVSNKYFSNIHWCN)	effectively inhibit	–
uPA20-34: linear peptide from the receptor binding region of uPA, amino acids 20-34 (VSNKYFSNIHWCNCP)	does not bind at all	–
